Reference: ChEMBL document CHEMBL4483862, “Open-source discovery of chemical leads for next-generation chemoprotective antimalarials” (2018)

Test system: Plasmodium berghei
Assay: Luciferase/luciferin-expressing antifolate-resistant parasites were used to infect a culture of HepG2 cells that were pre-incubated with compounds. Infected hepatocytes emit light due to the luciferase reaction. Assay results are presented as the percent inhibition of light emission compared to control. […]
Format: functional
Conditions: sporozoite; for IC90: read-out: LUCIFERASE INFECTION ASSAY - IC90
[1] = read-out: LUCIFERASE INFECTION ASSAY - IC50

O=C(Nc1cc(C(F)(F)F)cc(C(F)(F)F)c1)Nc1sccc1Cl
IC50 (HEPG2TOX_HILL_SLOPE 3.73, HEPG2TOX_R_SQUARED 0.682, PBLUC_HILL_SLOPE 3.61, PBLUC_R_SQUARED 0.656, read-out: LUCIFERASE INFECTION ASSAY - IC50): 1.59 µM
IC90: 2.93 µM

COCC(C)n1c(COc2ccccc2F)nnc1SC(C(=O)Nc1cc(C(F)(F)F)ccc1Cl)c1ccccc1 (stereo not given)
IC50 (FFLUC_HILL_SLOPE 3.29, FFLUC_R_SQUARED 0.0514, HEPG2TOX_HILL_SLOPE 2.28, HEPG2TOX_R_SQUARED 0.446, PBLUC_HILL_SLOPE 4.03, PBLUC_R_SQUARED 0.508, read-out: LUCIFERASE INFECTION ASSAY - IC50): 5.71 µM
IC90: 9.85 µM

COc1cc(Nc2nc(C(F)(F)F)nc3ccccc23)cc(OC)c1OC
IC50 (HEPG2TOX_HILL_SLOPE 10.4, HEPG2TOX_R_SQUARED 0.414, PBLUC_HILL_SLOPE 1.58, PBLUC_R_SQUARED 0.452, read-out: LUCIFERASE INFECTION ASSAY - IC50): 4.12 µM
IC90: > 10 µM

CN(CCOc1ccccc1)C(=O)c1ccc(Cl)c(S(=O)(=O)N(Cc2ccccc2)c2ccccc2)c1
IC50 (HEPG2TOX_HILL_SLOPE 5.5, HEPG2TOX_R_SQUARED 0.0292, PBLUC_HILL_SLOPE 16, PBLUC_R_SQUARED 0.261, read-out: LUCIFERASE INFECTION ASSAY - IC50): 9.56 µM
IC90: > 10 µM

CCn1c(-c2ccccc2)c(C(=O)CSc2nnc(N)[nH]2)c2ccccc21
IC50 (FFLUC_HILL_SLOPE 0.751, FFLUC_R_SQUARED 0.0256, read-out: LUCIFERASE INFECTION ASSAY - IC50): > 10 µM
IC90: > 10 µM

Cc1ccc(/C=C/C(=O)NC2CCCc3ccccc32)o1 (stereo not given)
IC50 (FFLUC_HILL_SLOPE 16.2, FFLUC_R_SQUARED 0.0896, read-out: LUCIFERASE INFECTION ASSAY - IC50): > 10 µM
IC90: > 10 µM

FC(F)Oc1ccc(-c2csc(COc3ccc(C4SCCS4)cc3)n2)cc1
IC50 [1]: 3.7 µM
IC90: > 7.54 µM

c1ccc(-c2ccc(C3=Nc4ccccc4SC(c4ccco4)C3)cc2)cc1 (stereo not given)
IC50 (FFLUC_HILL_SLOPE 14.5, FFLUC_R_SQUARED 0.557, PBLUC_HILL_SLOPE 1.32, PBLUC_R_SQUARED 0.568, read-out: LUCIFERASE INFECTION ASSAY - IC50): 0.903 µM
IC90: 4.75 µM

CNc1nc2cnc(-c3ccccc3C)cc2n1-c1cccc(F)c1
IC50 [1]: > 10 µM
IC90: > 10 µM

CC(=O)Nc1ccc(-c2cnc3ccc(-c4ccc(F)c(Cl)c4)nn23)cc1
IC50 (FFLUC_HILL_SLOPE 64.9, FFLUC_R_SQUARED 0.6, HEPG2TOX_HILL_SLOPE 8.77, HEPG2TOX_R_SQUARED 0.612, PBLUC_HILL_SLOPE 16.7, PBLUC_R_SQUARED 0.645, read-out: LUCIFERASE INFECTION ASSAY - IC50): 3.09 µM
IC90: 3.52 µM

Cc1cc(Nc2nc3ccccc3nc2N2CCN(/C=C/c3ccccc3)CC2)n(-c2ccccc2)n1
IC50 [1]: > 10 µM
IC90: > 10 µM

CC(C)Oc1ccc(C(=O)NCC(=O)Nc2nc3c(s2)CCCC3)cc1
IC50 (PBLUC_HILL_SLOPE 9.11, PBLUC_R_SQUARED 0.281, read-out: LUCIFERASE INFECTION ASSAY - IC50): 3.33 µM
IC90: 4.24 µM

Cc1ccc(C)c(-c2nn(CC(=O)N3c4ccccc4CC3C)c(=O)c3ccccc23)c1 (stereo not given)
IC50 (HEPG2TOX_HILL_SLOPE 7.77, HEPG2TOX_R_SQUARED 0.247, read-out: LUCIFERASE INFECTION ASSAY - IC50): > 10 µM
IC90: > 10 µM

CN(Cc1ccc(C(F)(F)F)cc1)C(=O)c1cc(Br)ccc1O
IC50 (FFLUC_HILL_SLOPE 1.16, FFLUC_R_SQUARED 0.0567, read-out: LUCIFERASE INFECTION ASSAY - IC50): > 10 µM
IC90: > 10 µM

O=C1C(=O)N(Cc2ccccc2Cl)c2ccc(F)cc21
IC50 [1]: > 11.4 µM
IC90: > 11.4 µM

C/C=C/C=C/C(=O)Nc1ccc(Nc2ccccc2)cc1
IC50 (HEPG2TOX_HILL_SLOPE 12.3, HEPG2TOX_R_SQUARED 0.699, PBLUC_HILL_SLOPE 454, 10.1, PBLUC_R_SQUARED 0.588, 0.566, read-out: LUCIFERASE INFECTION ASSAY - IC50): 5.17 µM
IC90: 5.63 µM

CN(CC(=O)Nc1ccc(-c2nc3ccccc3[nH]2)cc1)S(=O)(=O)c1cccs1
IC50 (PBLUC_HILL_SLOPE 3.6, PBLUC_R_SQUARED 0.614, read-out: LUCIFERASE INFECTION ASSAY - IC50): 8.33 µM
IC90: > 10 µM

Cc1onc(-c2ccc(Cl)cc2)c1-c1ccnc(SCC(=O)c2ccc([N+](=O)[O-])cc2)n1
IC50 (FFLUC_HILL_SLOPE 14.7, FFLUC_R_SQUARED 0.642, read-out: LUCIFERASE INFECTION ASSAY - IC50): > 7.07 µM
IC90: > 7.07 µM

O=C(Nc1ccc(Oc2ccccc2)cc1)c1csc(C(O)c2cccc(Cl)c2)n1 (stereo not given)
IC50 (HEPG2TOX_HILL_SLOPE 2.05, HEPG2TOX_R_SQUARED 0.879, PBLUC_HILL_SLOPE 3.47, PBLUC_R_SQUARED 0.401, read-out: LUCIFERASE INFECTION ASSAY - IC50): 2.99 µM
IC90: 5.62 µM

Cc1ccccc1-c1cn2c(-c3ccc(Cl)cc3)cnc2cn1
IC50 (PBLUC_HILL_SLOPE 7.25, PBLUC_R_SQUARED 0.317, read-out: LUCIFERASE INFECTION ASSAY - IC50): 3.83 µM
IC90: 5.18 µM

CN(C)c1nc(C=C(C#N)C#N)c(Cl)n1-c1ccc(F)cc1
IC50 [1]: > 10 µM
IC90: > 10 µM

O=C(O)c1cc(N/N=C(\c2ccncc2)c2ccc([N+](=O)[O-])cc2)cc(C(=O)O)c1
IC50 [1]: > 10 µM
IC90: > 10 µM

COc1ccc(-c2cnc3ccc(-c4cccc(Cl)c4)nn23)cc1OC
IC50 (FFLUC_HILL_SLOPE 18.1, FFLUC_R_SQUARED 0.385, HEPG2TOX_HILL_SLOPE 1.42, HEPG2TOX_R_SQUARED 0.94, PBLUC_HILL_SLOPE 1.13, PBLUC_R_SQUARED 0.747, read-out: LUCIFERASE INFECTION ASSAY - IC50): 0.748 µM
IC90: 5.25 µM

COC(=O)C1=C(Nc2ccc(OS(=O)(=O)c3ccc(F)cc3F)cc2)CSC1
IC50 [1]: > 7.72 µM
IC90: > 7.72 µM

O=C1COc2ccc(-c3csc(Nc4ccccc4C(F)(F)F)n3)cc2N1
IC50 [1]: 5.54 µM
IC90: > 10 µM

CN(/N=C/c1cc(Cl)cc(Cl)c1O)c1ccc([N+](=O)[O-])cn1
IC50 (FFLUC_HILL_SLOPE 1.05, FFLUC_R_SQUARED 0.5, read-out: LUCIFERASE INFECTION ASSAY - IC50): > 9.67 µM
IC90: > 9.67 µM

Cc1[nH]c2ccccc2c1CC(=O)N1CCc2c(c(C(=O)NCc3cccnc3)nn2CC(C)C)C1
IC50 (PBLUC_HILL_SLOPE 12.1, PBLUC_R_SQUARED 0.505, read-out: LUCIFERASE INFECTION ASSAY - IC50): 5.48 µM
IC90: 6.57 µM

C=CCN1C(=O)C(O)(c2cnc(N)s2)c2ccccc21 (stereo not given)
IC50 [1]: > 10 µM
IC90: > 10 µM

CCOC(=O)/C(=C\c1cccc(F)c1)C1=Nn2c(nnc2-c2ccc(OC)cc2)SC1
IC50 (HEPG2TOX_HILL_SLOPE 19.5, HEPG2TOX_R_SQUARED 0.849, PBLUC_HILL_SLOPE 122, PBLUC_R_SQUARED 0.536, read-out: LUCIFERASE INFECTION ASSAY - IC50): 6.31 µM
IC90: 6.43 µM

COc1ccc(OCCN2CCN(c3ccnc4cc(Cl)ccc34)CC2)cc1
IC50 (HEPG2TOX_HILL_SLOPE 3.33, HEPG2TOX_R_SQUARED 0.981, PBLUC_HILL_SLOPE 2.57, PBLUC_R_SQUARED 0.319, read-out: LUCIFERASE INFECTION ASSAY - IC50): 5.62 µM
IC90: > 10 µM

NC(=O)C1CCN(c2nc(-c3cccs3)nc3sc4c(c23)CCCC4)CC1
IC50 [1]: > 10 µM
IC90: > 10 µM

COc1ccc(-c2cnc3sc(NCCc4ccc(S(N)(=O)=O)cc4)nn23)cn1
IC50 [1]: > 7.67 µM
IC90: > 7.67 µM

O=C(CN1C(=O)CCOc2ccccc21)N1CCN(C(=O)C2COc3ccccc3O2)CC1 (stereo not given)
IC50 [1]: 3.76 µM
IC90: 8.99 µM

COc1cc(Cl)c(C)cc1-n1c(SCc2nnc(-c3cccs3)o2)nc2ccccc2c1=O
IC50 (FFLUC_HILL_SLOPE 9.81, FFLUC_R_SQUARED 0.743, PBLUC_HILL_SLOPE 8.4, PBLUC_R_SQUARED 0.579, read-out: LUCIFERASE INFECTION ASSAY - IC50): 8.6 µM
IC90: > 10 µM

CC1CC(=O)N(CC(=O)Nc2ccc(C(F)(F)F)cc2)N=C1c1ccc(Cl)cc1 (stereo not given)
IC50 (FFLUC_HILL_SLOPE 1.68, FFLUC_R_SQUARED 0.0802, HEPG2TOX_HILL_SLOPE 1.48, HEPG2TOX_R_SQUARED 0.946, read-out: LUCIFERASE INFECTION ASSAY - IC50): > 10 µM
IC90: > 10 µM

CC(=O)Nc1cccc(-c2ccnc3c2CC(C(=O)NCc2cccs2)O3)c1 (stereo not given)
IC50 (FFLUC_HILL_SLOPE 58.8, FFLUC_R_SQUARED 0.264, HEPG2TOX_HILL_SLOPE 13.5, HEPG2TOX_R_SQUARED 0.74, PBLUC_HILL_SLOPE 13.2, PBLUC_R_SQUARED 0.157, read-out: LUCIFERASE INFECTION ASSAY - IC50): 2.74 µM
IC90: 3.24 µM

CN(C)S(=O)(=O)c1cc(C(=O)Nc2nc(-c3ccccc3)cn2/N=C/c2ccccc2)ccc1Cl
IC50 (PBLUC_HILL_SLOPE 2.59, PBLUC_R_SQUARED 0.747, read-out: LUCIFERASE INFECTION ASSAY - IC50): 5.75 µM
IC90: > 10 µM

COc1ccc(-c2cnc3cnc(-c4cccc(NS(C)(=O)=O)c4)cn23)cc1
IC50 (PBLUC_HILL_SLOPE 9.6, PBLUC_R_SQUARED 0.49, read-out: LUCIFERASE INFECTION ASSAY - IC50): 2.94 µM
IC90: 3.7 µM

CCCNC(=O)c1csc(C(O)c2ccc(C(C)(C)C)cc2)n1 (stereo not given)
IC50 (HEPG2TOX_HILL_SLOPE 2.18, HEPG2TOX_R_SQUARED 0.794, read-out: LUCIFERASE INFECTION ASSAY - IC50): > 10 µM
IC90: > 10 µM

CCOC(=O)c1c(NC(=O)CSc2nnc3n(-c4c(C)cccc4C)c(=O)c4ccccc4n23)sc(C(C)=O)c1C
IC50 (FFLUC_HILL_SLOPE 2.66, FFLUC_R_SQUARED 0.447, PBLUC_HILL_SLOPE 3.22, PBLUC_R_SQUARED 0.684, read-out: LUCIFERASE INFECTION ASSAY - IC50): 2.67 µM
IC90: 5.29 µM
